Reference: publication PMC10111420, “Optimization of Host Cell-Compatible, Antimicrobial Peptides Effective against Biofilms and Clinical Isolates of Drug-Resistant Bacteria” (ACS Infectious Diseases, 2023)
Values after ≈ are worked out from the molar mass of the structure shown. Where a SMILES comes first, the peptide text is derived from it. Bridges are numbered along the chain shown (N, C = ends). [ ]: non-standard residue; d: D form.

Experiments:
[1] = system: Escherichia coli (ATCC 25922)
Protocol: All peptide variants were synthesized and purified as described previously.[5],[7] They were tested in broth dilution in the presence and absence of 1 × 10^9 human RBCs per mL, 20% of the concentration in human blood, against Escherichia coli, K. pneumoniae, and Staphylococcus aureus. […] The toxicity of the variants was tested by measuring hemolysis as well as cytotoxicity against human WI-38 fibroblast cells.
(§1) Subcultures, prepared by inoculating 25 mL of fresh tryptic soy broth (TSB) with 200 μL of an overnight culture, were grown to log phase (OD600 = 0.3–0.6), after which cell counts were determined by measuring the OD600 (1.0 = 5 × 10^8 CFU/mL for E. coli, 4 × 10^8 CFU/mL for K. pneumoniae, 4 × 10^8 CFU/mL for P. aeruginosa, 1.5 × 10^8 CFU/mL for S. aureus). Bacterial cells were diluted to appropriate concentrations in TSB. We used the following clinical bacterial isolates of Klebsiella pneumoniae in this study: Strains KP6, KP46, NDM-1, KP396, and KP398 have been previously described.[43] ST58 strains C2, C3, and I2 are also described.[41] […] MRSA, […] S. aureus strain, is SAP400, a USA400 strain of community-acquired MRSA. […] The second independent set of K. pneumoniae isolates are previously described.[20],[21]
(§2) The antibiotics were serially diluted by a factor of 2:3 horizontally across 96-well plates from Corning, 25 μL per well. One column was reserved for controls. For the assays performed in the presence of RBC, type O+ human RBCs at 0 or 2.5 × 10^9 cells/mL were added in 50 μL aliquots to all wells. Following a 30-min incubation, 50 μL of TSB, inoculated with 5 × 10^5 CFU/mL, was added to all wells, and plates were incubated overnight at 37 °C. Following overnight incubation at 37 °C, the OD600 was measured (values of less than 0.1 were considered sterilized). To assess bacterial growth in the assays with RBC, the OD600 was measured after a second-day inoculation with 10 μL of solution from the original plate added to 100 μL of sterile TSB followed by overnight incubation.
(§3) Experiments were repeated four to eight times independently, with pairs of replicate measurements on each 96-well plate. After overnight growth, optical densities were measured at 660 nm and the sterilized wells were identified by having O.D. < 0.08. Nonsterilized wells were nearly opaque with OD > 0.6. For each measurement, we recorded the largest dilution that sterilized the bacteria. Statistics are done on dilution numbers, rather than calculated concentrations, because only the former have normal distributions.

human RBCs = assay type: cell-based
Protocol: Human O+ erythrocytes were obtained from Interstate Blood Bank, Inc. Red blood cells were subjected to four or more cycles of centrifugation at 1000g with resuspension in fresh PBS. Following the final wash step, the supernatant was clear and colorless. RBC concentration was determined using a standard hemocytometer.
Peptide was serially diluted in PBS starting at a concentration of 100 μM. The final volume of peptide in each well was 50 μL. To each well, 50 μL of RBCs in PBS at 2 × 10^8 cells/mL was added. As a positive lysis control, 1% Triton was used. The mixtures were incubated at 37 °C for 1 h, after which they were centrifuged at 1000g for 5 min. After centrifugation, 10 μL of supernatant was transferred to 90 μL of DI H2O in a fresh 96-well plate. The absorbance of released hemoglobin at 410 nm was recorded, and the fractional hemolysis was calculated based on the 100 and 0% lysis controls. At least three independent experiments were performed. Results shown are averages.

[2] = system: WI-38 human fibroblast cells; experiment: in vitro; assay type: cell-based
Protocol: The day before cytotoxicity experiments, the 10,000 cells/well were plated in a 96-well tissue-culture plate. […] To perform the cytotoxicity assay, media was removed from the wells and replaced with peptide solutions. […] The plate was read for SYTOX fluorescence every 5 min for an hour with an excitation wavelength of 504 nm and an emission wavelength of 523 nm. Percent cytotoxicity was calculated at 60 min using the 100 and 0% lysis controls. At least three independent experiments were averaged.

[3] = system: K. pneumoniae clinical isolates; experiment: microbe, parasite or virus in culture; conditions: broth dilution; at least three independent measurements, SE about 40%; highest concentration 150 μM
Protocol: as §1
as §2, with “Following a 30-min incubation, 50 μL of TSB, inoculated with 5 × 10^5 CFU/mL, was added to all wells, and plates were incubated overnight at 37 °C. Following overnight incubation at 37 °C, the OD600 was measured (values of less than 0.1 were considered sterilized).” left out
as §3

[4] = system: MRSA SAP400, a USA400 strain; experiment: microbe, parasite or virus in culture; conditions: broth dilution; at least three independent measurements, SE about 40%; highest concentration 150 μM
Protocol: as §1, §2, §3

[5] = system: Pseudomonas aeruginosa clinical isolates; experiment: microbe, parasite or virus in culture; conditions: broth dilution; at least three independent measurements, SE about 40%; highest concentration 150 μM
Protocol: as §1, §2, §3

[6] = system: Acinetobacter baumannii (PDR) Tulane isolate; conditions: broth dilution; at least three independent measurements, SE about 40%; highest concentration 150 μM

For `CC(C)C[C@H](NC(=O)[C@H](CCCNC(=N)N)NC(=O)[C@H](CCCNC(=N)N)NC(=O)[C@H](C)NC(=O)[C@H](Cc1c[nH]c2ccccc12)NC(=O)[C@H](CCCNC(=N)N)NC(=O)[C@H](N)CCCNC(=N)N)C(=O)N[C@@H](C)C(=O)N[C@@H](Cc1ccccc1)C(=O)N[C@@H](C)C(=O)N[C@@H](Cc1ccccc1)C(=O)N[C@@H](CCCNC(=N)N)C(=O)N[C@H](CCCNC(=N)N)C(N)=O` [L-CONGA- (R1,R13)] (H-[dR]RWARRLAFAFR[dR]-NH2; N-terminus and C-terminus assumed), the “MIC in Broth Dilution, E. coli” value [1] was 26 µM (≈ 45.8 µg/mL), the “Hemolysis at 100 μM (fractional hemolysis)” value (human RBCs) was 0.01 and the EC50 [2] was 134 µM.

In the case of `CC(C)C[C@@H]1NC(=O)[C@H](CCCNC(=N)N)NC(=O)[C@H](CCCNC(=N)N)NC(=O)[C@H](C)NC(=O)[C@H](Cc2c[nH]c3ccccc23)NC(=O)[C@H](CCCNC(=N)N)NC(=O)[C@H](CCCNC(=N)N)NC(=O)CC[C@@H](C(N)=O)NC(=O)[C@H](CCCNC(=N)N)NC(=O)[C@H](CCCNC(=N)N)NC(=O)[C@H](Cc2ccccc2)NC(=O)[C@H](C)NC(=O)[C@H](Cc2ccccc2)NC(=O)[C@H](C)NC1=O` [L-CONGA-E cycl.] (RRWARRLAFAFRRE-NH2; lactam N-14), the “MIC in Broth Dilution, E. coli” value [1] is reported as 23 µM (≈ 43.1 µg/mL) and the “Hemolysis at 100 μM (fractional hemolysis)” value (human RBCs) is reported as 0.03.

With `CC(C)C[C@@H]1NC(=O)[C@H](CCCNC(=N)N)NC(=O)[C@H](CCCNC(=N)N)NC(=O)[C@H](C)NC(=O)[C@H](Cc2c[nH]c3ccccc23)NC(=O)[C@H](CCCNC(=N)N)NC(=O)[C@H](CCCNC(=N)N)NC(=O)[C@H](CCCNC(=N)N)NC(=O)[C@H](CCCNC(=N)N)NC(=O)[C@H](Cc2ccccc2)NC(=O)[C@H](C)NC(=O)[C@H](Cc2ccccc2)NC(=O)[C@H](C)NC1=O` [L-CONGA-OH cycl.] (cyclo(RRWARRLAFAFRR)) the “MIC in Broth Dilution, E. coli” value [1] was 13 µM (≈ 22.7 µg/mL) and the “Hemolysis at 100 μM (fractional hemolysis)” value (human RBCs) was 0.07.

For gentamycin, the “MIC, KP 6” value [3] was > 150 µM, the “MIC, KP 46” value [3] was 1.6 µM and the “MIC, KP 398” value [3] was 1.9 µM. The “MIC, KP 2146NDM-1” value [3] was > 150 µM, the “MIC, KP (CRE)” value [3] was 5.2 µM and the “MIC, KP ATCC 33495” value [3] was 1.9 µM. The “MIC, KP ST258 C2” value [3] was > 150 µM, the “MIC, KP ST258 C3” value [3] was > 150 µM and the “MIC, KP ST258 I2” value [3] was 8.3 µM. The “MIC, KP ST396” value [3] was 2.0 µM, the “MIC, MRSA USA400” value [4] was > 150 µM and the “MIC, PA(mucoid)” value [5] was 5.5 µM. For the same molecule, the “MIC, PA(non-mucoid)” value [5] was 8.3 µM and the “MIC, AB (PDR)Tulane” value [6] was > 150 µM.
